1 molecule from paper PMC10018608 (Signal Transduction and Targeted Therapy, 2023) can be followed below.

Where two headings read alike, the source gives them in different places.

As usually defined, the IC50 is the concentration that gives 50% inhibition. Lower therefore signals inhibition by little substance.

One data set deals with T1, CYP1A2 (Homo sapiens, UniProt P05177).
T1 construct: Add 400 μL 0.2 mg/mL HLM; from tissue; host or cells: human liver microsomes (HLM)
The experiment in a line: biochemical. It is filed as in vitro ADME. The conditions noted are these: CYP1A2 (Phenacetin), HLM. The method, then: (§1) Preheat 0.1 M pH 7.4 K/Mg-buffer at 37 °C. The reference inhibitors for this assay are α-Naphthoflavone (1A2), Ticlopidine (2B6), Montelukast (2C8), Sulfaphenazole (2C9), Omeprazole (2C19), Quinidine (2D6), Ketoconazole (3A4). Test compound and reference inhibitors were dissolved in ACN. NADPH cofactor was dissolved in K/Mg-buffer. Each CYP450 isoform was prepared 2 mL substrate (1A2: Phenacetin, 2B6: Amfebutamone HCl, 2C8: Paclitaxel, 2C9: Diclofenac, 2C19: S-Mephenytoin, 2D6: Dextromethorphan, 3A4: Midazolam and Testosterone). Add 400 μL 0.2 mg/mL HLM and 2 μL of test compound set (serially diluted) to the assay wells. And then add 30 μL HLM-compound mixture and 15 μL substrate solution in the 96-well assay plate on ice. Then incubate the 96-well assay plate at 37 °C for 5 min. Add 15 µL of pre-warmed (37 °C) 8 mM NADPH solution to initiate the enzyme reaction. Incubate the assay plate at 37 °C for 5–45 min and quench the reaction. Then collect samples for LC/MS analysis.

The next data set deals with T2, CYP2B6 (Homo sapiens, UniProt P20813).
T2 construct: Add 400 μL 0.2 mg/mL HLM; from tissue; host or cells: human liver microsomes (HLM)
The experiment in a line: biochemical. The settings on record: CYP2B6 (Bupropion), HLM. It is filed as in vitro ADME. On the procedure:
as §1

A further data set has as its target T3, CYP2C19 (Homo sapiens, UniProt P33261).
T3 construct: Add 400 μL 0.2 mg/mL HLM; from tissue; host or cells: human liver microsomes (HLM)
The experiment in a line: biochemical. It is filed as in vitro ADME. The conditions noted are these: CYP2C19 (S-Mephenytoin), HLM. On the procedure:
as §1

The next data set has as its target T4, CYP2C8 (Homo sapiens, UniProt P10632).
T4 construct: Add 400 μL 0.2 mg/mL HLM; from tissue; host or cells: human liver microsomes (HLM)
The experiment in a line: biochemical. It is filed as in vitro ADME. The settings on record: CYP2C8 (Paclitaxel), HLM. On the procedure:
as §1

The target in the next data set is T5, CYP2C9 (Homo sapiens, UniProt P11712).
T5 construct: Add 400 μL 0.2 mg/mL HLM; from tissue; host or cells: human liver microsomes (HLM)
The experiment in a line: biochemical. It is filed as in vitro ADME. The settings on record: CYP2C9 (Diclofenac), HLM. On the procedure: as §1

The target of a further data set is T6, CYP2D6 (Homo sapiens, UniProt P10635).
T6 construct: Add 400 μL 0.2 mg/mL HLM; from tissue; host or cells: human liver microsomes (HLM)
The experiment in a line: biochemical. The settings on record: CYP2D6 (Dextromethorphan), HLM. It is filed as in vitro ADME. The method, then:
as §1

The target in a further data set is T7, CYP3A4 (Homo sapiens, UniProt P08684).
T7 construct: Add 400 μL 0.2 mg/mL HLM; from tissue; host or cells: human liver microsomes (HLM)
The experiment in a line: biochemical. It is filed as in vitro ADME. The method, then:
as §1

The conditions of data set [1]: ICR Mice.
The target in another data set is hERG channel (Homo sapiens, UniProt Q12809). The experiment in a line: cell-based.
Sequence of hERG channel (Q12809 whole entry): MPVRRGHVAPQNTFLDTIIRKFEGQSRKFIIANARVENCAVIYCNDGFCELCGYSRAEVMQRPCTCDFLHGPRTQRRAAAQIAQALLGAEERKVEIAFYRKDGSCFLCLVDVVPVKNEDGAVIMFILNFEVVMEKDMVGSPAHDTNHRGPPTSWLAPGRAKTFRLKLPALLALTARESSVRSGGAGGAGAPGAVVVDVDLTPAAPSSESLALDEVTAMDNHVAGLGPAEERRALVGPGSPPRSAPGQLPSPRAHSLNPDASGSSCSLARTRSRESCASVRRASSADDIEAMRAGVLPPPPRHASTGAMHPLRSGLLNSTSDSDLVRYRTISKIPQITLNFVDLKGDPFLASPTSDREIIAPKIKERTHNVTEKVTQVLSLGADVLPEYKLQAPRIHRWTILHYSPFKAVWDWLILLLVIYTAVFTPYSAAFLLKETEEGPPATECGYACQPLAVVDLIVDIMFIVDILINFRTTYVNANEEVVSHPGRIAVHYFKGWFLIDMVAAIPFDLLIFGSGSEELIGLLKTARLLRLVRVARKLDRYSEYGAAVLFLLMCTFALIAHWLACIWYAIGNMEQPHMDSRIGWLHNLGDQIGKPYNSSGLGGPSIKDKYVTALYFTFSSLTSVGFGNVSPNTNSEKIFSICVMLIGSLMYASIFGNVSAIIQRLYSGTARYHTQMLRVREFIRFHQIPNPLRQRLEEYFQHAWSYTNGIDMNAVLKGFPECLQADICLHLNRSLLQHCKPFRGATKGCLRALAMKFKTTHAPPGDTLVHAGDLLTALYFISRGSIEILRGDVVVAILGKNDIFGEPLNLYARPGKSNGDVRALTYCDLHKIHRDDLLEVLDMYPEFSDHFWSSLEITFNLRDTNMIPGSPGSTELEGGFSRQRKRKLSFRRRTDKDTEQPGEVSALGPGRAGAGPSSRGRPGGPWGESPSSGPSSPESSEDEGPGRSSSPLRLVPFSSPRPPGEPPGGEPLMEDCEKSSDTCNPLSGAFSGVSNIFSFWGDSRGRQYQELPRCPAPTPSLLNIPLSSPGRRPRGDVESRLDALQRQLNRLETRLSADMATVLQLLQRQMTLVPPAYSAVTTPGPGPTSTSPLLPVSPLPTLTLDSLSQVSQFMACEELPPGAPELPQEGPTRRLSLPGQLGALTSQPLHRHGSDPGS

T7 sequence (P08684 whole entry): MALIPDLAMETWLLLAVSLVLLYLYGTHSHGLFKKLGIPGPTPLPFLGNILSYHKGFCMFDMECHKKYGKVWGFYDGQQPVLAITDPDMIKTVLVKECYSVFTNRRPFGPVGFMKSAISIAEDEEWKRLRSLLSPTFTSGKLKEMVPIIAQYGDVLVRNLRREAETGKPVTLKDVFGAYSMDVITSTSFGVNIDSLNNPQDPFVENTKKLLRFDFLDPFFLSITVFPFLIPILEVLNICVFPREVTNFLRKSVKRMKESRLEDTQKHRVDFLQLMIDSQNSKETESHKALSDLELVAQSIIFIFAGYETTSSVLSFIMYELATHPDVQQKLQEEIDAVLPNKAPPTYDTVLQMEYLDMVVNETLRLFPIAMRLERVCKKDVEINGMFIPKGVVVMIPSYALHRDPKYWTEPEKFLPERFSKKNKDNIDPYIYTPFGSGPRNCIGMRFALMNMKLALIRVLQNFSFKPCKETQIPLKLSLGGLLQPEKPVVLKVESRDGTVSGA
T2 sequence (P20813 whole entry): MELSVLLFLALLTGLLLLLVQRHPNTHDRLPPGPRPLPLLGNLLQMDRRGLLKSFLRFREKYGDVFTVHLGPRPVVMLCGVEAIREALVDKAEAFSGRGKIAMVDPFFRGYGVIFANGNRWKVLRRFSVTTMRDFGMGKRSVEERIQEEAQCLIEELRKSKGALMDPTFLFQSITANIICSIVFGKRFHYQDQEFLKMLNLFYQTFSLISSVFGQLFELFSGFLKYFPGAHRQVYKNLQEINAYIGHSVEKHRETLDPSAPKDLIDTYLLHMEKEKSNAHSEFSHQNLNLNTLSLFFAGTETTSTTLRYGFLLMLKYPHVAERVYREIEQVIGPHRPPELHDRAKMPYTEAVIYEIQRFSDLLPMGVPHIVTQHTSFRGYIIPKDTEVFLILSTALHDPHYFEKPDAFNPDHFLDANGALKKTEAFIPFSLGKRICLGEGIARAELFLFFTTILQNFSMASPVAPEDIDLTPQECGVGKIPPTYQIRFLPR
T1 sequence (P05177 whole entry): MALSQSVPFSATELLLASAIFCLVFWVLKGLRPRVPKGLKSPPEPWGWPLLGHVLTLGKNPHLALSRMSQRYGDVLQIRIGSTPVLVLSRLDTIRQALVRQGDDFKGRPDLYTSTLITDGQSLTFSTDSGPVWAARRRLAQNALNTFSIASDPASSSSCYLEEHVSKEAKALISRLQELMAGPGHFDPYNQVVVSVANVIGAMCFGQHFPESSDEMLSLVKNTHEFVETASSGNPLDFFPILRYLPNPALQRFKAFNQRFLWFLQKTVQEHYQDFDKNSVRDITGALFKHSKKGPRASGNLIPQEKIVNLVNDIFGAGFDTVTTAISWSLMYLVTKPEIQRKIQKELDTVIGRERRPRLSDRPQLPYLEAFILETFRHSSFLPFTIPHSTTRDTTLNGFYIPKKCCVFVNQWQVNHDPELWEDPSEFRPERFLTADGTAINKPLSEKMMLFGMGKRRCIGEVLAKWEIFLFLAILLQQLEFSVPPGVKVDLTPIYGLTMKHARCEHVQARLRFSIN
T4 sequence (P10632 whole entry): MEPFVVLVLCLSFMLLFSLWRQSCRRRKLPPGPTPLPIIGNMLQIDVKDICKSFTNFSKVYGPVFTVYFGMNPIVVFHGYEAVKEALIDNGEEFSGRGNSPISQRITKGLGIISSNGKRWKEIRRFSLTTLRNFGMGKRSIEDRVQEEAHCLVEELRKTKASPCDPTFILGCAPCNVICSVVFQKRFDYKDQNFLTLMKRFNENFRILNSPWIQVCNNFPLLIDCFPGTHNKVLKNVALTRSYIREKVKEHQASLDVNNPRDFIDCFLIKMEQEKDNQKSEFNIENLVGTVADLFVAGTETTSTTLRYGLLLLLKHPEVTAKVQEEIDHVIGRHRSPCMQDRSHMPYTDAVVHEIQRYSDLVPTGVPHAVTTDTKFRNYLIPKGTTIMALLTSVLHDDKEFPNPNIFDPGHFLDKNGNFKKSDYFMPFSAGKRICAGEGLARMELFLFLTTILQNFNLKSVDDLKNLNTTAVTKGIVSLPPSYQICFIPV
T3 sequence (P33261 whole entry): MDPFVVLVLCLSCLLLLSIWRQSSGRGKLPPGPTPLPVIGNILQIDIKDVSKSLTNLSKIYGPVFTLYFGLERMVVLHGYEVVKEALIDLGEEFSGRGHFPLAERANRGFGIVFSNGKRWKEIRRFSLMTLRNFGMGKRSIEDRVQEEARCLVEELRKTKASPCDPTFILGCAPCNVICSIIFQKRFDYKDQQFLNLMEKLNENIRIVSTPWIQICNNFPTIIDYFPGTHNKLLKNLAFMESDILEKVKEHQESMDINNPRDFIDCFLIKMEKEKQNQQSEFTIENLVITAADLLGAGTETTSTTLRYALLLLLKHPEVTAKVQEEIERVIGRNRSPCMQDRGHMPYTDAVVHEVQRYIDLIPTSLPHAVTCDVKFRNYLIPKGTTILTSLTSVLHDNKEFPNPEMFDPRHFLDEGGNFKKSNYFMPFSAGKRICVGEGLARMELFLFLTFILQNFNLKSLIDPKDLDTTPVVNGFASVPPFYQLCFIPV
T6 sequence (P10635 whole entry): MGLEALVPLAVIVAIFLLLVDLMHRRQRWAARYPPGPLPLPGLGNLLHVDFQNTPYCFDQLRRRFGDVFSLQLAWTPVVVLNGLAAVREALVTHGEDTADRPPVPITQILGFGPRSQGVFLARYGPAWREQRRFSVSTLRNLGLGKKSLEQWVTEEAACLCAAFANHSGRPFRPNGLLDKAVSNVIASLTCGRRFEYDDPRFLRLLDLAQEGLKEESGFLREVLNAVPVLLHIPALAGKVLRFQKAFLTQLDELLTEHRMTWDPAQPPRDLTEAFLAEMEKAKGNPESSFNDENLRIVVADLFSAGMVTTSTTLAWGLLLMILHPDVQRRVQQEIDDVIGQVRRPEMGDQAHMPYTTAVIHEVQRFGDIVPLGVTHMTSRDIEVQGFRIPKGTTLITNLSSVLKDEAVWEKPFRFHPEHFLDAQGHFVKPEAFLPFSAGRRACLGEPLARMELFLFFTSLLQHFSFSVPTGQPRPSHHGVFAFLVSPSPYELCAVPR
T5 sequence (P11712 whole entry): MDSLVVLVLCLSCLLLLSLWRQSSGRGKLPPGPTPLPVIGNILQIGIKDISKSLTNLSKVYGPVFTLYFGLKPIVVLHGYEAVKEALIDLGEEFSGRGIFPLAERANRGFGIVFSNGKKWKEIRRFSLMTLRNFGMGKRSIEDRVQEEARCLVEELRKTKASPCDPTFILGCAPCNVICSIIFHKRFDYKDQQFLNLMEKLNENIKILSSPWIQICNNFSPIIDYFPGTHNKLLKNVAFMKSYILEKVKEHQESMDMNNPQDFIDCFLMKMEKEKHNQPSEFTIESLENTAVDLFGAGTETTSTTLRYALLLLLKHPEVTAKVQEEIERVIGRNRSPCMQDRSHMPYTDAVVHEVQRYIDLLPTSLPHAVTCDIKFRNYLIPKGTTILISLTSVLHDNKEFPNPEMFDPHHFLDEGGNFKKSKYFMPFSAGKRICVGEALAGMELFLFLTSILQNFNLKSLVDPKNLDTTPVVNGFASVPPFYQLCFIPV

Turning to `COC[C@@H](NC(=O)C1CCCC(F)(F)C1)C(=O)N[C@H](Cc1ccccc1)C(=O)C(=O)NCc1nccs1` (stereo partly drawn) [SY110, N-((R)-1-(((R)-3,4-dioxo-1-phenyl-4-((thiazol-2-ylmethyl)amino)butan-2-yl)amino)-3-methoxy-1-oxopropan-2-yl)-3,3-difluorocyclohexane-1-carboxamide], the IC50 against CYP1A2, at CYP2B6, against CYP2C19, at CYP2C8, against CYP2C9 and at CYP2D6 was more than 30 µM each time. Also, the half-maximal inhibitory concentration (IC50) against CYP3A4 (CYP3A4 (Midazolam), HLM) was more than 30 µM; at CYP3A4 (CYP3A4 (Testosterone), HLM), more than 30 µM; against CYP3A4 (CYP3A4, text, substrate not stated there), more than 30 µM; on hERG channel, more than 30 µM. The MTRlast in [1] (i.v. (1 mg/kg)) was found to be 0.17 ± 0.03 h; in data set [1] (p.o. (150 mg/kg)), 3.62 ± 1.18 h. Further, in [1] (i.v. (1 mg/kg)), the Vzobs came out at 4.27 ± 2.29 L/kg.
